From patent US20250170248A1, “SMARCA DEGRADERS AND USES THEREOF” (Kymera Therapeutics, Inc., priority 2021, published 2025)

Legend:
Type in all cases: cell-based
SMARCA4 = molecular target: T1, SMARCA4 (Homo sapiens, UniProt P51532); assay: SMARCA4 Western blot degradation in MV4-11 cells; settings: for Dmax: MV4-11, MV4-11 cells, read-out: SMARCA4 MSD MV411 degradation 24 h: average Dmax %; for Dmax / DC50: 24 h; for DC50: read-out: SMARCA4 MSD MV411 degradation 24 h: Mean external-Abs DC50
T1 construct: SMARCA2/SMARCA4 protein degradation selectivity in MV4-11 cells; endogenous in cells; host or cells: MV4-11
T1 sequence (P51532 whole entry): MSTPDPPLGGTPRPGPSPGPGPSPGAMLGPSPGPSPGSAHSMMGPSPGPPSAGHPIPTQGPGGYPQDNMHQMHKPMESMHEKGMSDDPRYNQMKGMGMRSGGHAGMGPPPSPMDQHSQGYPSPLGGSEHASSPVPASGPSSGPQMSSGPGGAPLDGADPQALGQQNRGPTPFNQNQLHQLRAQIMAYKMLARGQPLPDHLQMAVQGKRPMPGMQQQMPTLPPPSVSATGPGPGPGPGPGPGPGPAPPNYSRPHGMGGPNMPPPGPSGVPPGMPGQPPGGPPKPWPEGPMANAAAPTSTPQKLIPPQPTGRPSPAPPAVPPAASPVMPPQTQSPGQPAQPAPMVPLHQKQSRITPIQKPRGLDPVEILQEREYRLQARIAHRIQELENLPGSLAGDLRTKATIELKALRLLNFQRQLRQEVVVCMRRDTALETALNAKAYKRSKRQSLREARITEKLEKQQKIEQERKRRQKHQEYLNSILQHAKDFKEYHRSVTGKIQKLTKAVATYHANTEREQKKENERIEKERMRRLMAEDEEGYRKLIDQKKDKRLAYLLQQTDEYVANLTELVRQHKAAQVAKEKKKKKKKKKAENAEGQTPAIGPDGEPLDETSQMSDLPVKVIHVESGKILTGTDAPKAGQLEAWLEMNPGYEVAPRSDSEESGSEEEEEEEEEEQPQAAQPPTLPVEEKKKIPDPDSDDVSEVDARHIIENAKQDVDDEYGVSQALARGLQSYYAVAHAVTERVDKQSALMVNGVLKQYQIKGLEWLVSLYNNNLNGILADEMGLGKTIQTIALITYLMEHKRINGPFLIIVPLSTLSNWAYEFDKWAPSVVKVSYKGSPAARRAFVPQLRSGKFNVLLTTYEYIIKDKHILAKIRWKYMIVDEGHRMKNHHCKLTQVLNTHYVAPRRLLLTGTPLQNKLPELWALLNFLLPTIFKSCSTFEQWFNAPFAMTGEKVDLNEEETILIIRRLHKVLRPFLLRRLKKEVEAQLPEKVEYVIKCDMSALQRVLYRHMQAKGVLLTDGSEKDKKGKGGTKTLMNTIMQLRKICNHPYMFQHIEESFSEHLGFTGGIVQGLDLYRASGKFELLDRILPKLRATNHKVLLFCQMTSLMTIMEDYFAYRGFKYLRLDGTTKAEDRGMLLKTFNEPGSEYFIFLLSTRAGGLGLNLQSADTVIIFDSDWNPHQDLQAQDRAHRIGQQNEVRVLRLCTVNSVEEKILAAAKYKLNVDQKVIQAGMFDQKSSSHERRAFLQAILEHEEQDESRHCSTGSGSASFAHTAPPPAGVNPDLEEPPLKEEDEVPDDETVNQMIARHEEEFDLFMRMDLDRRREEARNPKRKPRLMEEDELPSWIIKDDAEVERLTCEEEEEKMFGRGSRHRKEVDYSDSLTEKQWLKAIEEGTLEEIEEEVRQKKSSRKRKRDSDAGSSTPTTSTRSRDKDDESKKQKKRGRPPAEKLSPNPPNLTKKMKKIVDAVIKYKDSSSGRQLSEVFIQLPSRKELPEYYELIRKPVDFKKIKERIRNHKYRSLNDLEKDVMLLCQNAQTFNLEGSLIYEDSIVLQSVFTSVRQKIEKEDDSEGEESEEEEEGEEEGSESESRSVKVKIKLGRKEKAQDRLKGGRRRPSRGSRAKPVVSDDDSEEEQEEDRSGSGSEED
In short: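 Fluorescent LI-COR imaging of Western blots quantified SMARCA2 and SMARCA4 protein remaining in MV4-11 cells after 24 h of compound treatment. β-actin was the loading control, and DC50, Dmax and SMARCA2/4 selectivity are given as letter-coded ranges.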

SMARCA2 [1] = molecular target: T2, SMARCA2 (Homo sapiens, UniProt P51531); assay: SMARCA2 Western blot degradation in MV4-11 cells; parameters: SMARCA2/SMARCA4 protein degradation selectivity in MV4-11 cells; endogenous in cells; host or cells: MV4-11; settings: for Dmax: MV4-11, MV4-11 cells, read-out: SMARCA2 MSD MV411 degradation 24 h: average Dmax %; for DC50: read-out: SMARCA2 MSD MV411 degradation 24 h: Mean external-Abs DC50; for Selectivity in MV411: SMARCA2/4 selectivity
T2 sequence (P51531 whole entry): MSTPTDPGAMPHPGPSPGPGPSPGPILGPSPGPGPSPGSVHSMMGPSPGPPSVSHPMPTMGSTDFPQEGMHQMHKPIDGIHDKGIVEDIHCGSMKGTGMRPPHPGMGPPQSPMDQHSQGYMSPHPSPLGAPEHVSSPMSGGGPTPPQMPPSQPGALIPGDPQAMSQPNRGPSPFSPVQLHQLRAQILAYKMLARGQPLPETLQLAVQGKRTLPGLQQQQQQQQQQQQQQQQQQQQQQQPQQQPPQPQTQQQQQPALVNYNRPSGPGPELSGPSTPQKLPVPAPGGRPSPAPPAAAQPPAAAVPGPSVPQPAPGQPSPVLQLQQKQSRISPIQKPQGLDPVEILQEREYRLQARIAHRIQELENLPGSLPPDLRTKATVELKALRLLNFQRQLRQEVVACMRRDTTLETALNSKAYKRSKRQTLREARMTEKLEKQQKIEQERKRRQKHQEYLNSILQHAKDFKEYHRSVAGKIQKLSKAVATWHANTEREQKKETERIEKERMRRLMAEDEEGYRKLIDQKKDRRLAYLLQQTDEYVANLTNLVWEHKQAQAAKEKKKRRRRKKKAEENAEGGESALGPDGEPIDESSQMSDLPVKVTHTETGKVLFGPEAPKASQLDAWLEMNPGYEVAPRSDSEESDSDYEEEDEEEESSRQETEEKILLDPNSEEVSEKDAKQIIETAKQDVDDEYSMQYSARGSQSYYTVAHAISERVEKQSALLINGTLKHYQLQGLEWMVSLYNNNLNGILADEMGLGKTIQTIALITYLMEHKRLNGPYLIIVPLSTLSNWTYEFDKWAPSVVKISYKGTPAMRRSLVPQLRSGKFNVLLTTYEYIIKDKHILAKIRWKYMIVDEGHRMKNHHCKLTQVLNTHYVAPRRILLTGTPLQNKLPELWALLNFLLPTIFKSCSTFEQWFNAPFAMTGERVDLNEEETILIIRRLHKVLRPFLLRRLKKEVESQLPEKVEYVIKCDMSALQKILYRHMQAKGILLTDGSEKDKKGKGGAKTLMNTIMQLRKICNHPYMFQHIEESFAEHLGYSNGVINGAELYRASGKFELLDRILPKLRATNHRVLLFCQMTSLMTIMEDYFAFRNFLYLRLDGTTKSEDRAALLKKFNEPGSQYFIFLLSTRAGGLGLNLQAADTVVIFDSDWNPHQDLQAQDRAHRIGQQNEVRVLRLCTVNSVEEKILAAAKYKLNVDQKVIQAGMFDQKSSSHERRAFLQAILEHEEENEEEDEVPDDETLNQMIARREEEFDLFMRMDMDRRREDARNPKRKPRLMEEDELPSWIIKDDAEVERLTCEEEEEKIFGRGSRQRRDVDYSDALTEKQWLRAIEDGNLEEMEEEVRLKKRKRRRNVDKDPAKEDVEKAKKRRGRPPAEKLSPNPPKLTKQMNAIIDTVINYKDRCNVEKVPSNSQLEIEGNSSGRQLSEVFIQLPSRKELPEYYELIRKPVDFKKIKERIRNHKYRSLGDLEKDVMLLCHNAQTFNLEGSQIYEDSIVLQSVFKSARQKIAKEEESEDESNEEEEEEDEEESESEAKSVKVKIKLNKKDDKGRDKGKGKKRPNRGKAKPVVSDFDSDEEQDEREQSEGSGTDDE

SMARCA2 [2] = molecular target: T2, SMARCA2; assay: MSD SMARCA2 degradation in A549 cell line; settings: for Dmax: A549, A549 cells; for Dmax / DC50: 24 h; for DC50: read-out: SMARCA2 MSD A549 degradation 24 h: Average external-Abs DC50
In short: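 SMARCA2 protein remaining after 24 h exposure of A549 cells (top concentration 1000 nM, 3-fold dilutions) was measured by MSD electrochemiluminescence immunoassay of cell lysates. Results are given as binned DC50 and maximal degradation (Dmax) codes.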

SMILES | Dmax (SMARCA4) | DC50 (SMARCA4; MV4-11 cells) | Dmax (SMARCA2 [1]; 24 h) | DC50 (SMARCA2 [1]; MV4-11 cells, 24 h) | Selectivity in MV411 (SMARCA2 [1]; MV4-11 cells) | Dmax (SMARCA2 [2]) | DC50 (SMARCA2 [2]; A549 cells) | SMARCA4 MSD MV411 degradation 24 h: average Dmax % (SMARCA4; MV4-11 cells) | SMARCA2 MSD MV411 degradation 24 h: average Dmax % (SMARCA2 [1]; MV4-11 cells, 24 h) | SMARCA2 MSD A549 degradation 24 h: Average Dmax % (SMARCA2 [2]; A549 cells)
C#Cc1ccc(CNC(=O)[C@@H]2C[C@@H](O)CN2C(=O)[C@@H](NC(=O)N2CCN(C[C@H]3CC[C@H](N4CCc5[nH]c6nnc(-c7ccccc7O)cc6c5[C@H]4C)CC3)CC2)C(C)(C)C)cc1 [I-200] | < 50% | > 100 nM | 50 to 70% | 10 to 100 nM | C (C (10-100 fold)) | > 90% | > 100 nM |  |  | 
C#Cc1ccc(CNC(=O)[C@@H]2C[C@@H](O)CN2C(=O)[C@@H](NC(=O)N2CCN(CC3CCN([C@H]4CC[C@@H](N5CCc6[nH]c7nnc(-c8ccccc8O)cc7c6[C@H]5C)CC4)CC3)CC2)C(C)(C)C)cc1 [I-203] | < 50% | > 100 nM | < 50% | > 100 nM | C (C (10-100 fold)) | 70 to 90% | > 100 nM |  |  | 
C#Cc1ccc(CNC(=O)[C@@H]2C[C@@H](O)CN2C(=O)[C@@H](NC(=O)N2CCN(CC3CCN([C@H]4CC[C@H](N5CCc6[nH]c7nnc(-c8ccccc8O)cc7c6[C@H]5C)CC4)CC3)CC2)C(C)(C)C)cc1 [I-204] | < 50% | > 100 nM | < 50% | > 100 nM | C (C (10-100 fold)) | 70 to 90% | > 100 nM |  |  | 
C#Cc1ccc(C2(NC(=O)[C@@H]3C[C@@H](O)CN3C(=O)[C@@H](NC(=O)N3CC4(CC(N5CCC(N6CCC(N7CCc8[nH]c9nnc(-c%10ccccc%10O)cc9c8[C@H]7C)CC6)CC5)C4)C3)C(C)(C)C)CC2)cc1 [I-210] | < 50% | > 100 nM | 50 to 70% | 10 to 100 nM | C (C (10-100 fold)) | > 90% | > 100 nM |  |  | 
C#Cc1ccc(CNC(=O)[C@@H]2C[C@@H](O)CN2C(=O)[C@@H](NC(=O)CN2CC3(CC(N4CCC(N5CCC(N6CCN7c8cc(-c9ccccc9O)nnc8NC[C@H]7C6)CC5)CC4)C3)C2)C(C)(C)C)cc1 [I-214, (2S,4R)—N-(4-ethynylbenzyl)-4-hydroxy-1-((S)-2-(2-(6-(4-((S)-2-(2-hydroxyphenyl)-6a,7,9,10-tetrahydro-5H-pyrazino[1′,2′:4,5]pyrazino[2,3-c]pyridazin-8(6H)-yl)-[1,4′-bipiperidin]-1′-yl)-2-azaspiro[3.3]heptan-2-yl)acetamido)-3,3-dimethylbutanoyl)pyrrolidine-2-carboxamide] | < 50% | > 100 nM | 70 to 90% | 10 to 100 nM | B (B (>100-500 fold)) | > 90% | > 100 nM |  |  | 
C#Cc1ccc(CNC(=O)[C@@H]2C[C@@H](O)CN2C(=O)[C@@H](NC(=O)N2CC3(CC(N4CCC(N5CCC(N6CCN7c8cc(-c9ccccc9O)nnc8NC[C@H]7C6)CC5)CC4)C3)C2)C(C)(C)C)cc1 [I-215] | 70 to 90% | 10 to 100 nM | > 90% | 1 to 10 nM | C (C (10-100 fold)) | > 90% | 50 to 100 nM |  |  | 
C#Cc1ccc(CNC(=O)[C@@H]2C[C@@H](O)CN2C(=O)[C@@H](NC(=O)N2CCN(CC3CCN([C@H]4CC[C@@H](N5CCN6c7cc(-c8ccccc8O)nnc7NC[C@H]6C5)CC4)CC3)CC2)C(C)(C)C)cc1 [I-216] | < 50% | > 100 nM | < 50% | > 100 nM | C (C (10-100 fold)) | 70 to 90% | > 100 nM |  |  | 
C#Cc1ccc(CNC(=O)[C@@H]2C[C@@H](O)CN2C(=O)[C@@H](NC(=O)N2CCN(CC3CCN([C@H]4CC[C@H](N5CCN6c7cc(-c8ccccc8O)nnc7NC[C@H]6C5)CC4)CC3)CC2)C(C)(C)C)cc1 [I-217] | < 50% | > 100 nM | 50 to 70% | 10 to 100 nM | C (C (10-100 fold)) | 70 to 90% | > 100 nM |  |  | 
C#Cc1ccc(CNC(=O)[C@@H]2C[C@@H](O)CN2C(=O)[C@@H](NC(=O)N2CCO[C@@H](CN3CCC(N4CCC(N5CCN6c7cc(-c8ccccc8O)nnc7NC[C@H]6C5)CC4)CC3)C2)C(C)(C)C)cc1 [I-218] | < 50% | > 100 nM | < 50% | > 100 nM | C (C (10-100 fold)) | 50 to 70% | > 100 nM |  |  | 
C#Cc1ccc(CNC(=O)[C@@H]2C[C@@H](O)CN2C(=O)[C@@H](NC(=O)N2CCO[C@H](CN3CCC(N4CCC(N5CCN6c7cc(-c8ccccc8O)nnc7NC[C@H]6C5)CC4)CC3)C2)C(C)(C)C)cc1 [I-219] | < 50% | > 100 nM | < 50% | > 100 nM | C (C (10-100 fold)) | 50 to 70% | > 100 nM |  |  | 
C#Cc1ccc(CNC(=O)[C@@H]2C[C@@H](O)CN2C(=O)[C@@H](NC(=O)[C@H]2CCC3(CC2)C[C@H](N2CCC(N4CCC(N5CCN6c7cc(-c8ccccc8O)nnc7NC[C@H]6C5)CC4)CC2)C3)C(C)(C)C)c(Cl)c1 (stereo partly shown) [I-222] |  | > 100 nM |  | 10 to 100 nM | B (B (>100-500 fold)) |  | > 100 nM | D (D (<50% degradation)) | B (B (>70-90% degradation)) | A (A (>90% degradation))
C#Cc1ccc(CNC(=O)[C@@H]2C[C@@H](O)CN2C(=O)[C@@H](NC(=O)N2CC3(CC(N4CCC(N5CC6(CC(N7CCN8c9cc(-c%10ccccc%10O)nnc9NC[C@H]8C7)C6)C5)CC4)C3)C2)C(C)(C)C)cc1 [I-224] | 70 to 90% | 10 to 100 nM | 70 to 90% | 1 to 10 nM | C (C (10-100 fold)) | > 90% | 50 to 100 nM |  |  | 
C#Cc1ccc(CNC(=O)[C@@H]2C[C@@H](O)CN2C(=O)[C@@H](NC(=O)N2CC3(CC(N4CCC(c5cnc(N6CCc7[nH]c8nnc(-c9ccccc9O)cc8c7[C@@H]6C)nc5)CC4)C3)C2)C(C)(C)C)c(OCCCOC)c1 [I-227] | > 90% | > 100 nM | 70 to 90% | 10 to 100 nM | D (D (<10 fold)) | > 90% | 50 to 100 nM |  |  | 

The remaining lines, values ahead:

Dmax (SMARCA4) | DC50 (SMARCA4; MV4-11 cells) | Dmax (SMARCA2 [1]; 24 h) | DC50 (SMARCA2 [1]; MV4-11 cells, 24 h) | Selectivity in MV411 (SMARCA2 [1]; MV4-11 cells) | Dmax (SMARCA2 [2]) | DC50 (SMARCA2 [2]; A549 cells) | SMARCA4 MSD MV411 degradation 24 h: average Dmax % (SMARCA4; MV4-11 cells) | SMARCA2 MSD MV411 degradation 24 h: average Dmax % (SMARCA2 [1]; MV4-11 cells, 24 h) | SMARCA2 MSD A549 degradation 24 h: Average Dmax % (SMARCA2 [2]; A549 cells) | SMILES
< 50% | > 100 nM | < 50% | > 100 nM | C (C (10-100 fold)) | > 90% | > 100 nM |  |  |  | C#Cc1ccc(CNC(=O)[C@@H]2C[C@@H](O)CN2C(=O)[C@@H](NC(=O)N2CC3(CC(N4CC5(CC(N6CCC(N7CCc8[nH]c9nnc(-c%10ccccc%10O)cc9c8[C@H]7C)CC6)C5)C4)C3)C2)C(C)(C)C)cc1 [I-205]
< 50% | > 100 nM | < 50% | > 100 nM | C (C (10-100 fold)) | 70 to 90% | > 100 nM |  |  |  | C#Cc1ccc(CNC(=O)[C@@H]2C[C@@H](O)CN2C(=O)[C@@H](NC(=O)N2CCC(N3CC4(CC(N5CCC(N6CCc7[nH]c8nnc(-c9ccccc9O)cc8c7[C@H]6C)CC5)C4)C3)CC2)C(C)(C)C)cc1 [I-206]
< 50% | > 100 nM | 70 to 90% | 1 to 10 nM | B (B (>100-500 fold)) | > 90% | > 100 nM |  |  |  | C#Cc1ccc(CNC(=O)[C@@H]2C[C@@H](O)CN2C(=O)[C@@H](NC(=O)N2CC3(CC(N4CCC(N5CC6(CC(N7CCc8[nH]c9nnc(-c%10ccccc%10O)cc9c8[C@H]7C)C6)C5)CC4)C3)C2)C(C)(C)C)cc1 [I-207]
< 50% | > 100 nM | < 50% | > 100 nM | C (C (10-100 fold)) | 70 to 90% | > 100 nM |  |  |  | C#Cc1ccc(CNC(=O)[C@@H]2C[C@@H](O)CN2C(=O)[C@@H](NC(=O)N2CCC(N3CCC(N4CC5(CC(N6CCc7[nH]c8nnc(-c9ccccc9O)cc8c7[C@H]6C)C5)C4)CC3)CC2)C(C)(C)C)cc1 [I-208]
< 50% | > 100 nM | < 50% | > 100 nM | C (C (10-100 fold)) | 70 to 90% | > 100 nM |  |  |  | C#Cc1ccc(CNC(=O)[C@@H]2C[C@@H](O)CN2C(=O)[C@@H](NC(=O)N2CCC(N3CC4(CC(N5CC6(CC(N7CCc8[nH]c9nnc(-c%10ccccc%10O)cc9c8[C@H]7C)C6)C5)C4)C3)CC2)C(C)(C)C)cc1 [I-209]
< 50% | > 100 nM | 70 to 90% | 10 to 100 nM | C (C (10-100 fold)) | > 90% | > 100 nM |  |  |  | C#Cc1ccc([C@H](C)NC(=O)[C@@H]2C[C@@H](O)CN2C(=O)[C@@H](NC(=O)N2CC3(CC(N4CCC(N5CCC(N6CCc7[nH]c8nnc(-c9ccccc9O)cc8c7[C@H]6C)CC5)CC4)C3)C2)C(C)(C)C)cc1 [I-212]
